Assay [1] relates to Bc 1–5 (RNA, riboswitch) GAUGUAACUGAAUGAAAUGGUGAAGGACGGGUCCACUUAUAACGAGAAGCGGAGGGACUGGCCCAAUGAAGCUUCAGCAACCAUUCAUUGCGAUGAAAAGGUGCUAAAUCCAGCAAAGGGAACUUUGGCAGAUAAGUUGUUGAGUAGAGUGUGAGCUCCGUAACUAGUUACAUC
Nature of the assay: fluorescence titration. Particulars: 125 mM KCl, 10 mM MgCl2; 40 mM HEPES pH 7.5, 37 °C, 100 nM RNA, 10 µM DFHBI.

Assay [2] relates to Bs 4-4 (RNA, riboswitch) GAUGUAACUGAAUGAAAUGGUGAAGGACGGGUCCACUUGGAAGAUAAGAAGCAAUUCUUAUCAAGAGAAGCAGAGGGACUGGCCCGACGAAGCUUCAGCAACCGGUGUAAUGGCGAUCAGCCAUGACCAAGGUGCUAAAUCCAGCAAGUUGUUGAGUAGAGUGUGAGCUCCGUAACUAGUUACAUC
Nature of the assay: fluorescence titration. As to conditions: 125 mM KCl, 10 mM MgCl2; 40 mM HEPES pH 7.5, 37 °C, 100 nM RNA, 10 µM DFHBI.

For `C[S+](CC[C@H](N)C(=O)O)C[C@H]1O[C@@H](n2cnc3c(N)ncnc32)[C@H](O)[C@@H]1O` (some centres unmarked), the KD in assay [1] was ~ 1.7 µM. The molecule also yielded a dissociation constant in assay [2] of 1.0 µM.

Values taken from publication PMC6051913 (2018).
